# Patent publication US20170066717A1, “NEW PHENYLAZETIDINECARBOXYLATE OR -CARBOXAMIDE COMPOUNDS” (INVENTIVA, priority 2014, published 2017)
# Assays:
# [1] = biological target: T1, NURR-1/RXRγ (Homo sapiens, UniProt P48443); experiment: Transactivation test, NURR-1-Gal4/RXRγ, luciferase reporter in Cos-7 cells; type: cell-based; conditions: for Emax: COS-7, induction level relative to reference XCT0135908 at 2×10^−5 M (=100%), read-out: hNurr1_RXRgFL Emax (%); for EC50: Cos-7 cells, NURR-1-Gal4/RXRγ, luciferase reporter, read-out: hNurr1_RXRgFL EC50
# T1 construct: expressed in transfected cells; host or cells: Cos-7 cells
# T1 sequence (P48443 whole entry, the tested form may be a part): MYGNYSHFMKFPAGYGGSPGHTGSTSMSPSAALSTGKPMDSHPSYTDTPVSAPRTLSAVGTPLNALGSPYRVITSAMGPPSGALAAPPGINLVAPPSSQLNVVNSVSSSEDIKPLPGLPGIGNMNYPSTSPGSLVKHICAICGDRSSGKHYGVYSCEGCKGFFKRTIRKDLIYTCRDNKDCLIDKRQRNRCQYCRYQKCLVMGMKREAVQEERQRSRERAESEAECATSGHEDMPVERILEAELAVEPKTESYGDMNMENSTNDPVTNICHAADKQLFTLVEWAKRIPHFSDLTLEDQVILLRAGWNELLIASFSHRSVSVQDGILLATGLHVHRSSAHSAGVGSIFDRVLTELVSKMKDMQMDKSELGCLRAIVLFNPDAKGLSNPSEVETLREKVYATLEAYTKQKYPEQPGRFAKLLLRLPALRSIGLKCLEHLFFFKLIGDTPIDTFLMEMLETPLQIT
# T1 sequence (P43354 whole entry partner, the tested form may be a part): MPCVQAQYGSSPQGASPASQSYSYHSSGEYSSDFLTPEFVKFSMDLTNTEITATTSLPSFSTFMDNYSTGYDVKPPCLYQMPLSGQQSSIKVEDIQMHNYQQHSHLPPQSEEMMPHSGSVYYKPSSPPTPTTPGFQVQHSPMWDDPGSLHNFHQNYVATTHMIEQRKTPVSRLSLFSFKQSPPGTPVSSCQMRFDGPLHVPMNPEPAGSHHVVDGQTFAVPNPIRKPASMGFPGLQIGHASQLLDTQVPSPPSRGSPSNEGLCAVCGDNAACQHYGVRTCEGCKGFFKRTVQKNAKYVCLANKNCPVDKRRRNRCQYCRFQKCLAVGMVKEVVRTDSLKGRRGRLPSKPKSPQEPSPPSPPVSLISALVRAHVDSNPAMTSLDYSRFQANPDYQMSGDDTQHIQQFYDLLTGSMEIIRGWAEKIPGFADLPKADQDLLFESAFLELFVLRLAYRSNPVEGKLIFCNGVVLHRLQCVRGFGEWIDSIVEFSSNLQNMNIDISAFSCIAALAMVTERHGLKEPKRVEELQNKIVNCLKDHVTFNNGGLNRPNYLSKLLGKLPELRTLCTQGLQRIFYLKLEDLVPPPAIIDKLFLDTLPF
# T1 sequence (P04386 1-147 partner limits assumed): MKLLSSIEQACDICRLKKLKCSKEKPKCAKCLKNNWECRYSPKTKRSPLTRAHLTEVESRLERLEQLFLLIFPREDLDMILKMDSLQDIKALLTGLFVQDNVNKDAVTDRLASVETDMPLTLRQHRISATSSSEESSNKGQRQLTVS
# Method: (§1) The ability of the compounds according to the invention to behave as an activator of the heterodimers formed by the NURR-1 nuclear receptor and the RXR nuclear receptors was measured by means of an in vitro test. A transactivation test was used as primary selection (screening) test. Cos-7 cells were cotransfected with a plasmid expressing a chimera of the human NURR-1-Gal4 receptor, a plasmid expressing the human RXR receptor (RXRα or RXRγ receptor) and a 5Gal4pGL3-TK-Luc reporter plasmid. The transfctions were carried out using a chemical agent (Jet PEI). The transfected cells were distributed into 384-well plates and left to stand for 21 hours. At time 24 hours the culture medium was changed. The test products were added (final concentration of between 10^''4 and 3×10^-10 M) to the culture medium. After incubation overnight, the lucifeiase expression was measured after addition of SteadyGlo according to the instructions of the manufacturer (Promega). […] The induction levels (Emax) were calculated relative to the basal activity of each heterodimer.
# [2] = biological target: T2, NURR-1/RXRα (Homo sapiens, UniProt P19793); experiment: Transactivation test, NURR-1-Gal4/RXRα, luciferase reporter in Cos-7 cells; type: cell-based; conditions: for Emax: COS-7, induction level relative to reference XCT0135908 at 2×10^−5 M (=100%), read-out: hNurr1_RXRaFL Emax (%); for EC50: Cos-7 cells, NURR-1-Gal4/RXRα, luciferase reporter, read-out: hNurr1_RXRaFL EC50
# T2 construct: expressed in transfected cells; host or cells: Cos-7 cells
# T2 sequence (P19793 whole entry, the tested form may be a part): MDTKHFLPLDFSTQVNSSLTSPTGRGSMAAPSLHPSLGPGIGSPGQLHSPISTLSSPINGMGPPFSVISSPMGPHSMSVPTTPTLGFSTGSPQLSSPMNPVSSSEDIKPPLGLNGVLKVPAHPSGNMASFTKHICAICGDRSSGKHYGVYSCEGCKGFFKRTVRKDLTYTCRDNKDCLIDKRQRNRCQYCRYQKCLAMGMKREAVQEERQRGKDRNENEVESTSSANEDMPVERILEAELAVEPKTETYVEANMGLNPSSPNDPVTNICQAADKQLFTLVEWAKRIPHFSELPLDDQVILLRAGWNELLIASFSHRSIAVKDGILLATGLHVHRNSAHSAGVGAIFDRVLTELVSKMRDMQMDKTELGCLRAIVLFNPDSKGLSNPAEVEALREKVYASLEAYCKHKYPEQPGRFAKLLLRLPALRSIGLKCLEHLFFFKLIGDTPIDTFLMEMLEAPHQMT
# T2 sequence (P43354 whole entry partner, the tested form may be a part): as the sequence (P43354 whole entry partner, the tested form may be a part) above
# T2 sequence (P04386 1-147 partner limits assumed): as the sequence (P04386 1-147 partner limits assumed) above
# Method: as §1
Emax [1] [%],EC50 [1] [nM],Emax [2] [%],EC50 [2] [nM],Compound
33,> 5000,75,> 5000,"O=C(O)C1CN(c2cccc(-c3cccc(C(F)(F)F)n3)c2)C1 [Example 38, 1-[3-[6-(trifluoromethyl)-2-pyridyl]phenyl]azetidine-3-carboxylic acid]"
110,472,104,208,"Cc1cc(-c2cccc(N3CC(C(=O)O)C3)c2)nc(-c2ccccc2)n1 [Example 39, 1-[3-(6-methyl-2-phenylpyrimidin-4-yl)phenyl]azetidine-3-carboxylic acid]"
62,880,80,557,"O=C(O)C1CN(c2cccc(-c3cccc(-c4ccccc4)n3)c2)C1 [Example 40, 1-[3-(6-phenyl-2-pyridyl)phenyl]azetidine-3-carboxylic acid]"
123,0.7,134,0.5,"Cc1cn(-c2cccc(N3CC(C(=O)O)C3)c2)c2ccc(C(F)(F)F)cc12 [Example 41, 1-[3-[3-methyl-5-(trifluoromethyl)indol-1-yl]phenyl]azetidine-3-carboxylic acid]"
67,> 5000,81,5,"Cc1cn(-c2cc(Cl)cc(N3CC(C(=O)O)C3)c2)c2ccc(C(F)(F)F)cc12 [Example 42, 1-[3-chloroe-5-[3-methyl-5-(trifluoromethyl)indol-1-yl]phenyl]azetidine-3-carboxylic acid]"
90,9,84,6,"Cc1cn(-c2cc(N3CC(C(=O)O)C3)cc(C(F)(F)F)c2)c2ccc(C(F)(F)F)cc12 [Example 43, 1-[3-[3-methyl-5-(trifluoromethyl)indol-1-yl]-5-(trifluoromethyl)phenyl]azetidine-3-carboxylic acid]"
108,8,108,7,"O=C(O)C1CN(c2cccc(-n3ccc4cc(C(F)(F)F)ccc43)c2)C1 [Example 44, 1-[3-[5-(trifluoromethyl)indol-1-yl]phenyl]azetidine-3-carboxylic acid]"
107,3,96,2,Cc1cc(N2CC(C(=O)O)C2)cc(-n2cc(C)c3cc(Cl)ccc32)c1 [Example 45]
130,31,104,19,Cc1cn(-c2cccc(N3CC(C(=O)O)C3)c2)c2ccc(C3CC3)cc12 [Example 46]
95,542,91,368,"COc1ccc2c(ccn2-c2cc(C)cc(N3CC(C(=O)O)C3)c2)c1 [Example 47, 1-[3-(5-methoxyindol-1-yl)-5-methylphenyl]azetidine-3-carboxylic acid]"
129,123,96,37,"COc1ccc2c(c1)c(C)cn2-c1cc(C)cc(N2CC(C(=O)O)C2)c1 [Example 48, 1-[3-(5-methoxy-3-methylindol-1-yl)-5-methylphenyl]azetidine-3-carboxylic acid]"
114,1,99,1,"Cc1cc(N2CC(C(=O)O)C2)cc(-n2cc(C)c3cc(C(F)(F)F)ccc32)c1 [Example 49, 1-[3-methyl-5-[3-methyl-5-(trifluoromethyl)indol-1-yl]phenyl]azetidine-3-carboxylic acid]"
106,29,91,17,"COc1cc(N2CC(C(=O)O)C2)cc(-n2cc(C)c3cc(C(F)(F)F)ccc32)c1 [Example 51, 1-[3-methoxy-5-[3-methyl-5-(trifluoromethyl)indol-1-yl]phenyl]azetidine-3-carboxylic acid]"

# Further lines, the compound ahead of its results:
Compound,Emax [1] [%],EC50 [1] [nM],Emax [2] [%],EC50 [2] [nM]
"Cc1cc(-c2cccc(N(C)C)c2)cc(N2CC(C(=O)O)C2)c1 [Example 26, 1-[3-[3-(dimethylamino)phenyl]-5-methylphenyl]azetidine-3-carboxylic acid]",116,314,108,124
"Cc1cc(-c2cccc(Cl)c2)cc(N2CC(C(=O)O)C2)c1 [Example 27, 1-[3-[3-chlorophenyl]-5-methylpehnyl]azetidine-3-carboxylic acid]",114,232,119,165
"Cn1cc(-c2cc(N3CC(C(=O)O)C3)cc(C(F)(F)F)c2)c2ccc(C(F)(F)F)cc21 [Example 28, 1-[3-[1-methyl-6-(trifluoromethyl)indol-3-yl]-5-(trifluoromethyl)phenyl]azetidine-3-carboxylic acid]",58,70,76,45
Cn1cc(-c2cc(Cl)cc(N3CC(C(=O)O)C3)c2)c2ccc(C(F)(F)F)cc21 [Example 29],85,,78,
"Cn1cc(-c2cccc(N3CC(C(=O)O)C3)c2)c2ccc(C(F)(F)F)cc21 [Example 30, 1-[3-[1-methyl-6-(trifluoromethyl)indol-3-yl]phenyl]azetidine-3-carboxylic acid]",97,42,102,14
"CC(C)(C)c1cccc(-c2cccc(N3CC(C(=O)O)C3)c2)n1 [Example 31, 2-tert-butyl-6-[3-(3-carboxyazetidine-1-yl)phenyl]pyridiuium chlrodie]",59,401,62,153
"O=C(O)C1CN(c2cccc(-c3ccnc(C(F)(F)F)c3)c2)C1 [Example 32, 1-[3-[2-(trifluoromethyl)-4-pyridyl]phenyl]azetidine-3-carboxylic acid]",62,> 5000,71,> 5000
"Cc1nc(-c2ccccc2)oc1-c1cccc(N2CC(C(=O)O)C2)c1 [Example 33, 1-[3-(4-methyl-2-phenyl-oxazol-5-yl)phenyl]azetidine-3-carboxylic acid]",71,> 5000,119,> 5000
"O=C(O)C1CN(c2cccc(-c3cncc(C(F)(F)F)c3)c2)C1 [Example 34, 1-[3-[5-(trifluoromethyl)3-pyridyl]phenyl]azetidine-3-carboxylic acid]",64,> 5000,69,> 5000
"Cc1nc(C(F)(F)F)nc(-c2cccc(N3CC(C(=O)O)C3)c2)c1C [Example 35, 1-[3-[5,6-dimethyl-2-(trifloruomethyl)pyrrimidin-4-yl]phenyl]azetidine-3-carboxylic acid]",44,> 5000,45,> 5000
"O=C(O)C1CN(c2cccc(-c3ncc(Cl)c4ccccc34)c2)C1 [Example 36, 1-[3-(4-chloro-1-isoquinolyl)phenyl]azetidine-3-carboxylic acid]",121,1000,140,449
"O=C(O)C1CN(c2cccc(-c3cc4ccccc4c(Cl)n3)c2)C1 [Example 37, 1-[3-(1-chloro-3-isoquinoyl)phenyl]azetidine-3-carboxylic acid]",99,3820,62,> 5000
